Counter-ions that a name gives are not always drawn.
Target: T1, recombinant sEH (Homo sapiens, UniProt P34913)
T1 construct: made in house; host or cells: Sf9 insect cells
T1 sequence (P34913 1-555): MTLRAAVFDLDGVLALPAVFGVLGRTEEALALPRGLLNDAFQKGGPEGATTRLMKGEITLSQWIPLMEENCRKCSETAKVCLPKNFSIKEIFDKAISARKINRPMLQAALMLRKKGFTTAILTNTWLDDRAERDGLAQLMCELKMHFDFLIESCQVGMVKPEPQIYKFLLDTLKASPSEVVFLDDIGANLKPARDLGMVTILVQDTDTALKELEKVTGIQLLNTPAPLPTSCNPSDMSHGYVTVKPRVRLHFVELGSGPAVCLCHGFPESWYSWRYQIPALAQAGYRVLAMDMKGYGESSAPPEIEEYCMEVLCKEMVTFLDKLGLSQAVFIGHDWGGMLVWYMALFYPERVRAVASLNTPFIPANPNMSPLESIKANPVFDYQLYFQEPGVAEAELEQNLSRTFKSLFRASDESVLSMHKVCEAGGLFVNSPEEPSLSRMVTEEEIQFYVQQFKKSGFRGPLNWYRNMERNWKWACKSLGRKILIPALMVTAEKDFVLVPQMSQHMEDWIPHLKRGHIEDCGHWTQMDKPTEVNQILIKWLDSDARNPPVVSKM
Test: biochemical screening assay for inhibition of soluble epoxide hydrolase (fluorometric, Phome substrate)
Method in brief: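 Human sEH from Sf9 cells (2 nM final) was pre-incubated 15 min at 30 °C with compound (0.0001–10 μM), then reacted 60 min at 30 °C with 5 μM Phome in 25 mM Hepes/0.01% albumin. Fluorescence of released 6-methoxy-2-naphthaldehyde was read before substrate and at end; IC50 from % inhibition.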

Compound	IC50 [µM]
Cc1ncccc1OC1COC2C(NC(=O)NCc3ccc(F)cc3)COC12 [Example 180, 1-(4-Fluoro-benzyl)-3-[(3S,3aR,6S,-6aS)-6-(2-methyl-pyridin-3-yloxy)-hexahydro-furo[3,2-b]furan-3-yl]-urea]	0.055
Cc1ncccc1O[C@H]1CO[C@H]2[C@@H]1OC[C@@H]2NC(=O)NC(C)(C)c1cccnc1 [Example 233, 1-(1-Methyl-1-pyridin-3-yl-ethyl)-3-[(3S,3aR,6S,6aS)-6-(2-methyl-pyridin-3-yloxy)-hexahydro-furo[3,2-b]furan-3-yl]-urea]	3.56
Cc1ncccc1O[C@H]1CO[C@H]2[C@@H]1OC[C@@H]2NC(=O)NCCOC(C)(C)C [Example 217, 1-(2-tert-Butoxy-ethyl)-3-[(3S,3aR,6S,6aS)-6-(2-methyl-pyridin-3-yloxy)-hexahydro-furo[3,2-b]furan-3-yl]-urea]	0.371
Cc1ncccc1O[C@H]1CO[C@H]2[C@@H]1OC[C@@H]2NC(=O)NC1CCOc2ccccc21 (stereo partly drawn) [Example 207, 1-Chroman-4-yl-3-[(3S,3aR,6S,6aS)-6-(2-methyl-pyridin-3-yloxy)-hexa-hydro-furo[3,2-b]furan-3-yl]-urea]	0.003
CN1CCN(C(=O)c2ccc(O[C@H]3CO[C@H]4[C@@H]3OC[C@@H]4NC(=O)NC3CCCCC3)cc2)CC1 [Example 119, 1-Cyclohexyl-3-{(3S,3aR,6S,6aS)-6-[4-(4-methyl-piperazine-1-carbonyl)-phenoxy]-hexahydro-furo[3,2-b]furan-3-yl}-urea; trifluoroacetate]	0.021
Cc1ncccc1O[C@H]1CO[C@H]2[C@@H]1OC[C@@H]2NC(=O)NC1CCC(=O)N(C)C1 (stereo partly drawn) [Example 245, 1-(1-Methyl-6-oxo-piperidin-3-yl)-3-[(3S,3aR,6S,6aS)-6-(2-methyl-pyridin-3-yloxy)-hexahydro-furo[3,2-b]furan-3-yl]-urea]	0.825
O=C(NCc1ccc(F)cc1)N[C@H]1CO[C@H]2[C@@H]1OC[C@@H]2C#Cc1ccsc1 [Example 304, 1-(4-Fluoro-benzyl)-3-((3S,3aR,6S,6aR)-6-thiophen-3-ylethynyl-hexahydro-furo[3,2-b]furan-3-yl)-urea]	0.279
Cc1ncccc1OC1COC2C(NC(=O)NCC3CCCCC3(C)O)COC12 [Example 242, 1-((1R,2R)-2-Hydroxy-2-methyl-cyclohexylmethyl)-3-[(3S,3aR,6S,-6aS)-6-(2-methyl-pyridin-3-yloxy)-hexahydro-furo[3,2-b]furan-3-yl]-urea]	0.037
COc1cccc(CNC(=O)N[C@H]2CO[C@H]3[C@@H]2OC[C@@H]3Oc2cccnc2C)n1 [Example 202, 1-(6-Methoxy-pyridin-2-ylmethyl)-3-[(3S,3aR,6S,6aS)-6-(2-methyl-pyridin-3-yloxy)-hexahydro-furo[3,2-b]furan-3-yl]-urea]	0.345
Cc1ncccc1O[C@H]1CO[C@H]2[C@@H]1OC[C@@H]2NC(=O)NC1CCCC(C)C1C (stereo partly drawn) [Example 261, 1-(2,3-Dimethyl-cyclohexyl)-3-[(3S,3aR,6S,6aS)-6-(2-methyl-pyridin-3-yloxy)-hexahydro-furo[3,2-b]furan-3-yl]-urea]	0.003
O=C(Nc1ccc(F)cc1)NC1COC2C(CCc3ccccc3)COC12 [Example 360, 1-(4-Fluoro-phenyl)-3-[(3S,3aR,6R)-6-((S)-phenethyl)-hexahydro-furo[3,2-b]furan-3-yl]-urea]	0.081
O=C(Nc1ccc(Cl)c(Cl)c1)NC1COC2C(CCc3ccccc3)COC12 [Example 358, 1-(3,4-Dichloro-phenyl)-3-[(3S,3aR,6R)-6-((S)-phenethyl)-hexahydro-furo[3,2-b]furan-3-yl]-urea]	0.022
O=C(NC1CCCCC1)N(Cc1ccccc1)[C@H]1CO[C@@H]2[C@@H](CO)CO[C@@H]21 [Example 6, 1-benzyl-3-cyclohexyl-1-((3S,3aR,6S,6aR)-6-hydroxymethyl-hexahydro-furo[3,2-b]furan-3-yl)-urea]	8
Cc1cc(C)cc(NC(=O)NC2COC3C(C=Cc4ccccc4)COC23)c1 [Example 322, 1-(3,5-Dimethyl-phenyl)-3-[(3S,3aR,6R)-6-((S)-(Z)-styryl)-hexa-hydro-furo[3,2-b]furan-3-yl]-urea]	0.007
N#CC1COC2C(NC(=O)Nc3ccc(Cl)c(Cl)c3)COC12 (stereo not drawn) [Example 384]	0.061
Cc1ncccc1O[C@H]1CO[C@H]2[C@@H]1OC[C@@H]2NC(=O)NC(C)CN1CCCC1=O (stereo partly drawn) [Example 244, 1-[1-Methyl-2-(2-oxo-pyrrolidin-1-yl)-ethyl]-3-[(3S,3aR,6S,6aS)-6-(2-methyl-pyridin-3-yloxy)-hexahydro-furo[3,2-b]furan-3-yl]-urea]	0.577
Cc1ncccc1O[C@H]1CO[C@H]2[C@@H]1OC[C@@H]2NC(=O)NCC1COc2ccccc2O1 (stereo partly drawn) [Example 196, 1-(2,3-Dihydro-benzo[1,4]dioxin-2-ylmethyl)-3-[(3S,3aR,6S,6aS)-6-(2-methyl-pyridin-3-yloxy)-hexahydro-furo[3,2-b]furan-3-yl]-urea]	0.026
Cc1ncccc1O[C@H]1CO[C@H]2[C@@H]1OC[C@@H]2NC(=O)NC1COC(C)(C)OC1 [Example 80, 1-(2,2-dimethyl-[1,3]dioxan-5-yl)-3-[(3S,3aR,6S,6aS)-6-(2-methyl-pyridin-3-yloxy)-hexahydro-furo[3,2-b]furan-3-yl]-urea]	1.16
Cc1cccc(CNC(=O)NC2COC3C(CCc4ccsc4)COC23)c1 [Example 365, 1-(3-Methyl-benzyl)-3-[(3S,3aR,6R)-6-((S)-2-thiophen-3-yl-ethyl)-hexa-hydro-furo[3,2-b]furan-3-yl]-urea]	0.145
Cc1ncccc1O[C@H]1CO[C@H]2[C@@H]1OC[C@@H]2NC(=O)NC1CCCCC1C(F)(F)F (stereo partly drawn) [Example 275, 1-[(3S,3aR,6S,6aS)-6-(2-Methyl-pyridin-3-yloxy)-hexahydro-furo[3,2-b]furan-3-yl]-3-(2-trifluoromethyl-cyclohexyl)-urea]	0.019
O=C(NCCc1ccccc1)N[C@H]1CO[C@@H]2[C@@H](CCc3ccccc3)CO[C@@H]21 [Example 371, 1-Phenethyl-3-((3S,3aR,6S,6aR)-6-phenethyl-hexahydro-furo[3,2-b]furan-3-yl)-urea]	0.024
Cc1cc(CNC(=O)N[C@H]2CO[C@H]3[C@@H]2OC[C@@H]3Oc2cccnc2C)on1 [Example 171, 1-(3-Methyl-isoxazol-5-ylmethyl)-3-[(3S,3aR,6S,6aS)-6-(2-methyl-pyridin-3-yloxy)-hexahydro-furo[3,2-b]furan-3-yl]-urea]	2.35
Cc1ncccc1O[C@H]1CO[C@H]2[C@@H]1OC[C@@H]2NC(=O)NC1CCC(F)(F)CC1 [Example 89, 1-(4,4-difluoro-cyclohexyl)-3-[(3S,3aR,6S,6aS)-6-(2-methyl-pyridin-3-yloxy)-hexahydro-furo[3,2-b]furan-3-yl]-urea]	0.005
NC[C@H]1CO[C@H]2[C@@H]1OC[C@@H]2N(Cc1ccccc1)C(=O)NC1CCCCC1 [Example 7, 1-((3S,3aR,6S,6aR)-6-aminomethyl-hexahydro-furo[3,2-b]furan-3-yl)-1-benzyl-3-cyclohexyl-urea; trifluoroacetate]	0.258
Cc1ncccc1O[C@H]1CO[C@H]2[C@@H]1OC[C@@H]2NC(=O)N[C@@H]1CCCC[C@H]1F [Example 274, 1-((1R,2R)-2-Fluoro-cyclohexyl)-3-[(3S,3aR,6S,6aS)-6-(2-methyl-pyridin-3-yloxy)-hexahydro-furo[3,2-b]furan-3-yl]-urea]	0.014
Cc1ncccc1O[C@H]1CO[C@H]2[C@@H]1OC[C@@H]2NC(=O)NC1CCCN(C(=O)C(C)(C)C)C1 (stereo partly drawn) [Example 88, 1-[1-(2,2-Dimethyl-propionyl)-piperidin-3-yl]-3-[(3S,3aR,6S,6aS)-6-(2-methyl-pyridin-3-yloxy)-hexahydro-furo[3,2-b]furan-3-yl]-urea]	0.053
Cc1csc(CNC(=O)N[C@H]2CO[C@H]3[C@@H]2OC[C@@H]3Oc2cccnc2C)n1 [Example 199, 1-[(3S,3aR,6S,6aS)-6-(2-Methyl-pyridin-3-yloxy)-hexahydro-furo[3,2-b]furan-3-yl]-3-(4-methyl-thiazol-2-ylmethyl)-urea]	2.07
Cc1ncccc1O[C@H]1CO[C@H]2[C@@H]1OC[C@@H]2NC(=O)NC1CC(C)CC(C)(C)C1 (stereo partly drawn) [Example 256, 1-[(3S,3aR,6S,6aS)-6-(2-Methyl-pyridin-3-yloxy)-hexahydro-furo[3,2-b]furan-3-yl]-3-(3,3,5-trimethyl-cyclohexyl)-urea]	0.003
Cc1ncccc1O[C@H]1CO[C@H]2[C@@H]1OC[C@@H]2NC(=O)NC1(C)CCCCC1 [Example 249, 1-(1-Methyl-cyclohexyl)-3-[(3S,3aR,6S,6aS)-6-(2-methyl-pyridin-3-yloxy)-hexahydro-furo[3,2-b]furan-3-yl]-urea]	0.073
Cc1ncccc1O[C@H]1CO[C@H]2[C@@H]1OC[C@@H]2NC(=O)NCC1C[C@@H]2CC[C@H]1O2 (stereo partly drawn) [Example 239, 1-[(3S,3aR,6S,6aS)-6-(2-Methyl-pyridin-3-yloxy)-hexahydro-furo[3,2-b]furan-3-yl]-3-[(1R,4S)-1-(7-oxa-bicyclo[2.2.1]hept-2-yl)methyl]-urea]	0.078

Source: patent publication US9540391B2, “Isomannide derivatives as inhibitors of soluble epoxide hydrolase” (SANOFI, priority 2013, dated 2017)
